Results published in US20150283127A1, “SAQUINAVIR-NO FOR IMMUNOMODULATION” (ONCONOX APS, priority 2012, published 2015).

Key:
HIV = settings: cited from earlier work
[1] = tested on: experimental autoimmune uveoretinitis (EAU); experiment: Experimental autoimmune uveoretinitis (EAU) in the Wistar rat, histology; assay type: in vivo
Protocol: Female Wistar Rats n=28 (8 weeks-old) were purchased from Pasteur Institute (Algiers, Algeria). These rats were acclimated to their new environment for one week before the start of experiments and kept under normal conditions with a 12 h dark/light cycle and free access to food and water.
These animals were divided into four groups:
Control group (n=6) it consisted in non treated animals
Vehicle group (n=6) received a daily intraperitoneal injection of DMSO at 20% starting from the day of immunization.
Retinal crude extract immunized rats (referred to as EAU group n=8) received a single subcutaneous injection of 200 μL with Retinal Crude Extract emulsified in complete Freund's adjuvant; CFA (v/v) and were left untreated.
SaqNO (reference) treated rats (n=8) they received a daily intraperitoneal injection of SaqNO at 10 μg/kg starting from the day of immunization.
Fresh bovine eyes (n=20) were used in the experiments. They were cut just in posterior to the ora serrata, the vitreous was then removed without causing retinal detachment. The retinas were removed carefully and put in PBS, pH 7.4. They were then subjected to three successive thermal shock (−20° C. and +37°) in order to release retinal antigens. The retinal crude extract was obtained after a centrifugation at 4000 rpm for 15 min and conserved at −20° C. until further utilization.
[…]. In parallel, all rats from each group were also sacrificed.
For histopathological analysis, eyes were enucleated from each group and fixed in 10% phosphate-buffered formaldehyde. Tissue sections of 5 μm thickness were stained with hematoxylin and eosin (H&E). Sections were examined using a standard microscope (Zeiss) and pictures were taken using a digital camera at ×40 resolution Histological criteria were based on the degree of architectural changes. The histological scores were assessed semi-quantitatively by microscopic examination as follows:
No morphological changes, 0; minimal morphological changes of the outer nuclear layer (ONL) in retina, 1; atrophy of INL, 2; disappearance of INL, 3; and damage of total retinal layers, 4.

**Q.** Which results are given for `CC(C)(C)NC(=O)C1C[C@@H]2CCCC[C@@H]2CN1CC(O[N+](=O)[O-])[C@H](Cc1ccccc1)NC(=O)C(CC(N)=O)NC(=O)c1ccc2ccccc2n1` (some centres unmarked) [Saq-NO, nitric ester of Saquinavir]?
**A.** Anti-HIV potency relative to parental drug (HIV): retained; Uveitis clinical score ([1]; 10 μg/kg daily, P<0.05): improved significantly; Histological structure of retinal tissue ([1]; 10 μg/kg i.p. daily from immunization, day 14): ameliorated significantly; Histopathological scores ([1]; 10 μg/kg, P<0.05): ameliorated; Development of EAU ([1]; prophylactic treatment): prevents development of EAU
